The target of the assay is T1, human EP3 receptor (Homo sapiens, UniProt P43115).
T1 construct: expressed in transfected cells; host or cells: CHO K1 (Chinese Hamster Ovary), stably co-transfected with Galpha16 and mitochondrial clytin
T1 sequence (P43115 1-390): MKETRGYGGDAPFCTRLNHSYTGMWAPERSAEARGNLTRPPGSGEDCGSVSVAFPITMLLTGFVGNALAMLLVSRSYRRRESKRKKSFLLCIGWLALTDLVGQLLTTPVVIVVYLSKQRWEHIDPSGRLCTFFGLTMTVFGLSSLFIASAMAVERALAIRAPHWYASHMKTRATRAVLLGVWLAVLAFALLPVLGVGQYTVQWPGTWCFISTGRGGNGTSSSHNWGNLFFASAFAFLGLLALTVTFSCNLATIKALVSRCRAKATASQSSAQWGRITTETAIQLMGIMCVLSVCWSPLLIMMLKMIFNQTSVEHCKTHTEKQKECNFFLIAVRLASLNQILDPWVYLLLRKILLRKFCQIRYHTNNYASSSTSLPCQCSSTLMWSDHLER
Kind of assay: Cellular in vitro assay for determining EP3 receptor activity (human EP3 cell line, sulprostone-stimulated calcium luminescence). The assay is classed as cell-based. The settings on record: CHO cells expressing human EP3 and mitochondrial Clytin; antagonist mode, sulprostone at EC50; read-out: EP3 CHO mtCLY ANTAG IC50. The method in brief: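 CHO K1 cells stably expressing human EP3 with Gα16 and mitochondrial Clytin, loaded overnight with coelenterazine. Compounds added 10 min before sulprostone at its EC50; antagonism read immediately as reduced calcium-driven luminescence, quadruplicate points.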
The IC50 is the concentration needed to halve the response being measured. In the case of `O=C(NCc1cc(F)ccc1F)c1cc2c(=O)[nH]c(-c3ccc4ccccc4c3)cn2n1` [Example 2-53, N-(2,5-Difluorobenzyl)-6-(2-naphthyl)-4-oxo-4,5-dihydropyrazolo[1,5-a]pyrazine-2-carboxamide], the half-inhibitory concentration (IC50) was 3.7 nM.

In the case of `CCn1ccc(C(C)NC(=O)c2cc3c(=O)[nH]c(-c4ccc5ccccc5c4)cn3n2)n1` (stereo not shown) [Example 2-54, N-[1-(1-Ethyl-1H-pyrazol-3-yl)ethyl]-6-(2-naphthyl)-4-oxo-4,5-dihydropyrazolo[1,5-a]pyrazine-2-carboxamide], the IC50 stood at 7.05 nM.

As for `COc1ccc(C(C)NC(=O)c2cc3c(=O)[nH]c(-c4ccc5ccccc5c4)cn3n2)cc1OC` (stereo not shown) [Example 2-55, N-[1-(3,4-Dimethoxyphenyl)ethyl]-6-(2-naphthyl)-4-oxo-4,5-dihydropyrazolo[1,5-a]pyrazine-2-carboxamide], the IC50 turned out to be 1.15 nM.

Regarding `Cc1c(C(=O)NCCn2ccc(C3CC3)n2)nn2c(C)c(-c3ccc4ccccc4c3)[nH]c(=O)c12` [Example 3-1, N-[2-(3-Cyclopropyl-1H-pyrazol-1-yl)ethyl]-3,7-dimethyl-6-(naphthalen-2-yl)-4-oxo-4,5-dihydropyrazolo[1,5-a]pyrazine-2-carboxamide], the concentration for half-maximal inhibition (IC50) worked out at 0.79 nM.

For the compound `Cc1c(C(=O)N[C@H](CO)c2ccccc2)nn2c(C)c(-c3ccc4ccccc4c3)[nH]c(=O)c12` [Example 3-2, N-[(1S)-2-Hydroxy-1-phenylethyl]-3,7-dimethyl-6-(naphthalen-2-yl)-4-oxo-4,5-dihydropyrazolo[1,5-a]pyrazine-2-carboxamide], the IC50 is 1.2 nM.

In the case of `Cc1c(C(=O)NCCOCC(F)(F)F)nn2c(C)c(-c3ccc4ccccc4c3)[nH]c(=O)c12` [Example 3-3, 3,7-Dimethyl-6-(naphthalen-2-yl)-4-oxo-N-[2-(2,2,2-trifluoroethoxy)ethyl]-4,5-dihydropyrazolo[1,5-a]pyrazine-2-carboxamide], the IC50 is 5.4 nM.

For the compound `CCn1ccc(C(C)NC(=O)c2nn3c(C)c(-c4ccc5ccccc5c4)[nH]c(=O)c3c2C)n1` (stereo not shown) [Example 3-4, N-[1-(1-Ethylpyrazol-3-yl)ethyl]-3,7-dimethyl-6-(2-naphthyl)-4-oxo-5H-pyrazolo[1,5-a]pyrazine-2-carboxamide], the concentration for half-maximal inhibition (IC50) amounted to 2.6 nM.

For `Cc1c(C(=O)NCc2cc[nH]n2)nn2c(C)c(-c3ccc4ccccc4c3)[nH]c(=O)c12` [Example 3-5, 3,7-Dimethyl-6-(naphthalen-2-yl)-4-oxo-N-[(1H-pyrazol-3-yl)methyl]-4,5-dihydropyrazolo[1,5-a]pyrazine-2-carboxamide], the IC50 was 7 nM.

As for `Cc1c(C(=O)Nc2ccnn2C(C)C)nn2c(C)c(-c3ccc4ccccc4c3)[nH]c(=O)c12` [Example 3-6, 3,7-Dimethyl-6-(naphthalen-2-yl)-4-oxo-N-[1-(propan-2-yl)-1H-pyrazol-5-yl]-4,5-dihydropyrazolo[1,5-a]pyrazine-2-carboxamide], the IC50 is 4.75 nM.

As for `Cc1c(C(=O)NCC(C)Cn2cccn2)nn2c(C)c(-c3ccc4ccccc4c3)[nH]c(=O)c12` (stereo not shown) [Example 3-7, 3,7-Dimethyl-N-[2-methyl-3-(1H-pyrazol-1-yl)propyl]-6-(2-naphthyl)-4-oxo-4,5-dihydropyrazolo[1,5-a]pyrazine-2-carboxamide], the half-inhibitory concentration (IC50) stood at 1.34 nM.

As for `CCn1cc(Cl)c(CNC(=O)c2nn3c(C)c(-c4ccc5ccccc5c4)[nH]c(=O)c3c2C)n1` [Example 3-8, N-[(4-Chloro-1-ethyl-1H-pyrazol-3-yl)methyl]-3,7-dimethyl-6-(naphthalen-2-yl)-4-oxo-4,5-dihydropyrazolo[1,5-a]pyrazine-2-carboxamide], the IC50 came to 2.9 nM.

With `Cc1nn(C)cc1CNC(=O)c1nn2c(C)c(-c3ccc4ccccc4c3)[nH]c(=O)c2c1C` [Example 3-9, N-[(1,3-Dimethyl-1H-pyrazol-4-yl)methyl]-3,7-dimethyl-6-(naphthalen-2-yl)-4-oxo-4,5-dihydropyrazolo[1,5-a]pyrazine-2-carboxamide], the IC50 was found to be 1.95 nM.

For the compound `Cc1c(C(=O)NC(C)CC2CC2)nn2c(C)c(-c3ccc4ccccc4c3)[nH]c(=O)c12` (stereo not shown) [Example 3-10, N-(1-Cyclopropylpropan-2-yl)-3,7-dimethyl-6-(2-naphthyl)-4-oxo-4,5-dihydropyrazolo[1,5-a]pyrazine-2-carboxamide], the IC50 is 2.75 nM.

For `Cc1c(C(=O)NCc2ccnn2C)nn2c(C)c(-c3ccc4ccccc4c3)[nH]c(=O)c12` [Example 3-11, 3,7-Dimethyl-N-[(1-methyl-1H-pyrazol-5-yl)methyl]-6-(naphthalen-2-yl)-4-oxo-4,5-dihydropyrazolo[1,5-a]pyrazine-2-carboxamide], the IC50 came to 2.05 nM.

With `CCn1nccc1C(C)NC(=O)c1nn2c(C)c(-c3ccc4ccccc4c3)[nH]c(=O)c2c1C` (stereo not shown) [Example 3-12, N-[1-(1-Ethyl-1H-pyrazol-5-yl)ethyl]-3,7-dimethyl-6-(2-naphthyl)-4-oxo-4,5-dihydropyrazolo[1,5-a]pyrazine-2-carboxamide], the IC50 stood at 1.75 nM.

Regarding `Cc1c(C(=O)NC2Cc3ccccc3C2)nn2c(C)c(-c3ccc4ccccc4c3)[nH]c(=O)c12` [Example 3-13, N-(2,3-Dihydro-1H-inden-2-yl)-3,7-dimethyl-6-(naphthalen-2-yl)-4-oxo-4,5-dihydropyrazolo[1,5-a]pyrazine-2-carboxamide], the concentration for half-maximal inhibition (IC50) was 7.15 nM.

As for `CCn1cc(CNC(=O)c2nn3c(C)c(-c4ccc5ccccc5c4)[nH]c(=O)c3c2C)c(C)n1` [Example 3-14, N-[(1-Ethyl-3-methyl-1H-pyrazol-4-yl)methyl]-3,7-dimethyl-6-(naphthalen-2-yl)-4-oxo-4,5-dihydropyrazolo[1,5-a]pyrazine-2-carboxamide], the IC50 is 1.25 nM.

As to `Cc1cc(CNC(=O)c2nn3c(C)c(-c4ccc5ccccc5c4)[nH]c(=O)c3c2C)on1` [Example 3-15, 3,7-Dimethyl-N-[(3-methyl-1,2-oxazol-5-yl)methyl]-6-(naphthalen-2-yl)-4-oxo-4,5-dihydropyrazolo[1,5-a]pyrazine-2-carboxamide], the IC50 turned out to be 9.55 nM.

As to `Cc1c(C(=O)NC(C)c2ccc(Cl)c(Cl)c2)nn2c(C)c(-c3ccc4ccccc4c3)[nH]c(=O)c12` (stereo not shown) [Example 3-16, N-[1-(3,4-Dichlorophenyl)ethyl]-3,7-dimethyl-6-(2-naphthyl)-4-oxo-5H-pyrazolo[1,5-a]pyrazine-2-carboxamide], the half-maximal inhibitory concentration (IC50) is 7.2 nM.

On to `Cc1c(C(=O)NC(C)c2ccccn2)nn2c(C)c(-c3ccc4ccccc4c3)[nH]c(=O)c12` (stereo not shown) [Example 3-17, 3,7-Dimethyl-6-(2-naphthyl)-4-oxo-N-[1-(2-pyridyl)ethyl]-5H-pyrazolo[1,5-a]pyrazine-2-carboxamide], for which the IC50 stood at 1.8 nM.

As to `Cc1c(C(=O)NC(C)c2ccc(S(N)(=O)=O)cc2)nn2c(C)c(-c3ccc4ccccc4c3)[nH]c(=O)c12` (stereo not shown) [Example 3-18, 3,7-Dimethyl-6-(2-naphthyl)-4-oxo-N-[1-(4-sulfamoylphenyl)ethyl]-5H-pyrazolo[1,5-a]pyrazine-2-carboxamide], the IC50 stood at 3.75 nM.

Turning to `Cc1ccc([C@@H](C)NC(=O)c2nn3c(C)c(-c4ccc5ccccc5c4)[nH]c(=O)c3c2C)cc1` [Example 3-19, 3,7-Dimethyl-N-[(7R)-1-(4-methylphenyl)ethyl]-6-(naphthalen-2-yl)-4-oxo-4,5-dihydropyrazolo[1,5-a]pyrazine-2-carboxamide], the 50% inhibitory concentration (IC50) stood at 1.55 nM.

With `Cc1ccc([C@H](C)NC(=O)c2nn3c(C)c(-c4ccc5ccccc5c4)[nH]c(=O)c3c2C)cc1` [Example 3-20, 3,7-Dimethyl-N-[(7S)-1-(4-methylphenyl)ethyl]-6-(naphthalen-2-yl)-4-oxo-4,5-dihydropyrazolo[1,5-a]pyrazine-2-carboxamide], the concentration for half-maximal inhibition (IC50) turned out to be 8 nM.

As for `Cc1c(C(=O)NC(C)c2ccc(F)cc2)nn2c(C)c(-c3ccc4ccccc4c3)[nH]c(=O)c12` (stereo not shown) [Example 3-21, N-[1-(4-Fluorophenyl)ethyl]-3,7-dimethyl-6-(2-naphthyl)-4-oxo-5H-pyrazolo[1,5-a]pyrazine-2-carboxamide], the 50% inhibitory concentration (IC50) was determined as 1.8 nM.

As to `Cc1c(C(=O)N[C@@H](C)c2ccccc2)nn2c(C)c(-c3ccc4ccccc4c3)[nH]c(=O)c12` [Example 3-22, 3,7-Dimethyl-6-(naphthalen-2-yl)-4-oxo-N-[(7S)-1-phenylethyl]-4,5-dihydropyrazolo[1,5-a]pyrazine-2-carboxamide], the IC50 amounted to 2.35 nM.

Consider `Cc1c(C(=O)NC(C)c2ccc(S(C)(=O)=O)cc2)nn2c(C)c(-c3ccc4ccccc4c3)[nH]c(=O)c12` (stereo not shown) [Example 3-23, 3,7-Dimethyl-N-[1-(4-methylsulfonylphenyl)ethyl]-6-(2-naphthyl)-4-oxo-5H-pyrazolo[1,5-a]pyrazine-2-carboxamide], for which the concentration for half-maximal inhibition (IC50) was 3.2 nM.

As to `Cc1c(C(=O)NC(C)c2cccc(Br)c2)nn2c(C)c(-c3ccc4ccccc4c3)[nH]c(=O)c12` (stereo not shown) [Example 3-24, N-[1-(3-Bromophenyl)ethyl]-3,7-dimethyl-6-(2-naphthyl)-4-oxo-5H-pyrazolo[1,5-a]pyrazine-2-carboxamide], the 50% inhibitory concentration (IC50) is 4.85 nM.

Turning to `Cc1c(C(=O)NC2(c3ccccc3)CC2)nn2c(C)c(-c3ccc4ccccc4c3)[nH]c(=O)c12` [Example 3-25, 3,7-Dimethyl-6-(naphthalen-2-yl)-4-oxo-N-(1-phenylcyclopropyl)-4,5-dihydropyrazolo[1,5-a]pyrazine-2-carboxamide], the IC50 is 2.4 nM.

The record behind these values is patent US20220324865A1 (Bayer Aktiengesellschaft, priority 2018, published 2022).
